Laboratory results published in US11478533B2, “Semaglutide for use in medicine” (Novo Nordisk A/S, priority 2020, dated 2022).

System: subjects with NASH
Experiment: Clinical Trial A: liver biopsy histology (NASH-CRN, Kleiner fibrosis classification) at trial week 72
Assay type: in vivo, human
Settings: for Worsening of liver fibrosis stage determined via liver biopsy at end of trial compared to baseline, Proportion of subjects: all randomised subjects
From the text: NASH diagnosis may further include histological evidence of NASH with an NAFLD activity score (NAS) of more than 4. In some embodiments the term “NAFLD activity score” as used herein refers to the unweighted sum of the individual scores of steatosis (score 0-3), lobular inflammation (score 0-3), and hepatocyte ballooning (score 0-2) determined by liver biopsy histology according to NASH-CRN; thus, NAS is in the range of 0 to 8. In some embodiments NASH-CRN is as published in Kleiner et al. Hepatology. 2005; 41(6):1313-21 (e.g. Table 1) and Brunt et al. World J Gastroenterol. 2010; 16(42):5286-96. In some embodiments the term “steatosis” as used herein refers to liver biopsy histology showing low- to medium-power evaluation of parenchymal involvement by steatosis and is one of the stages with a score selected from the group consisting of “0” (<5%), “1” (5%-33%), “2” (>33%-66%), and “3” (>66%) according to NASH-CRN. In some embodiments the term “lobular inflammation” as used herein refers to the overall assessment of all inflammatory foci in liver biopsy histology and is one of the stages with a score selected from the group consisting of “0” (no foci), “1” (<2 foci per 200 times magnification field), “2” (2-4 foci per 200 times magnification field) and “3” (>4 foci per 200 times magnification field) according to NASH-CRN. In some embodiments the term “hepatocyte ballooning” as used herein refers to liver biopsy histology showing one of the stages with a score selected from the group consisting of “0” (none), “1” (few balloon cells) and “2” (many cells/prominent ballooning) according to NASH-CRN.
In some embodiments the method of the invention provides resolution of NASH. In some embodiments the term “resolution of NASH” as used herein refers to the subject no longer fulfilling the criteria for a NASH diagnosis. In some embodiments the term “resolution of NASH” refers to a liver biopsy histology showing (i) no more than mild residual inflammatory cells (i.e. inflammation score 0 or 1 according to NASH-CRN), (ii) no hepatocyte ballooning (i.e. hepatocyte ballooning score of 0 according to NASH-CRN), and (iii) any value for steatosis (i.e. steatosis score of 0-3 according to NASH-CRN). In some embodiments the method of the invention provides an improvement of lobular inflammation and/or hepatocyte ballooning. In some embodiments the term “improvement of lobular inflammation” as used herein refers to reduction by at least one stage of lobular inflammation (score 0-3) as defined herein; for example, reduction from a score 3 to a score 1. In some embodiments the term “improvement of hepatocyte ballooning” as used herein refers to reduction by at least one stage of hepatocyte ballooning (score 0-2) as defined herein; for example, reduction from a score 2 to a score 0.
In some embodiments the term “fibrosis” as used herein refers to the fibrosis stage in NASH described by the Kleiner fibrosis classification. In some embodiments the terms “Kleiner fibrosis classification” or “fibrosis stage” are used interchangeably herein and refer to the classification as defined in Kleiner et al. Hepatology, 2005; 41(6):1313-21 which consists of the stages selected from the group consisting of “0” (absence of fibrosis), “1” (portal/perisinusoidal fibrosis), “2” (perisinusoidal and portal/periportal fibrosis), “3” (septal or bridging fibrosis), and “4” (cirrhosis). In some embodiments the method of the invention provides no worsening of liver fibrosis. In some embodiments the terms “no worsening of liver fibrosis” or “no worsening of liver fibrosis stage” as used interchangeably herein refers to no increase of at least one stage of the Kleiner fibrosis classification.
A 72-week, randomised, double-blind, placebo-controlled, six-armed, parallel group, multicentre, multi-national phase 2 trial comparing once daily (OD) administration of semaglutide in three different doses (0.1 mg, 0.2 mg and 0.4 mg) with placebo in subjects with NASH was carried out. […]

[1] = 0.1 mg OD s.c., week 72, Fibrosis stage 1-3 at baseline (all randomised subjects)
[2] = 0.1 mg OD s.c., week 72, Fibrosis stage 1 at baseline
[3] = 0.1 mg OD s.c., week 72, Fibrosis stage 2 at baseline
[4] = 0.1 mg OD s.c., week 72, Fibrosis stage 2 or 3 at baseline
[5] = 0.1 mg OD s.c., week 72, Fibrosis stage 3 at baseline
[6] = 0.2 mg OD s.c., week 72, Fibrosis stage 1-3 at baseline (all randomised subjects)
[7] = 0.2 mg OD s.c., week 72, Fibrosis stage 1 at baseline
[8] = 0.2 mg OD s.c., week 72, Fibrosis stage 2 at baseline
[9] = 0.2 mg OD s.c., week 72, Fibrosis stage 2 or 3 at baseline
[10] = 0.2 mg OD s.c., week 72, Fibrosis stage 3 at baseline
[11] = 0.4 mg OD s.c., week 72, Fibrosis stage 1-3 at baseline (all randomised subjects)
[12] = 0.4 mg OD s.c., week 72, Fibrosis stage 1 at baseline
[13] = 0.4 mg OD s.c., week 72, Fibrosis stage 2 at baseline
[14] = 0.4 mg OD s.c., week 72, Fibrosis stage 2 or 3 at baseline
[15] = 0.4 mg OD s.c., week 72, Fibrosis stage 3 at baseline
[16] = all tested semaglutide dosages, liver fibrosis stage 1-3 at baseline

Substance: N-epsilon26-[2-(2-{2-[2-(2-{2-[(S)-4-Carboxy-4-(17-carboxyheptadecanoyl-amino)butyrylamino]ethoxy}ethoxy)acetylamino]ethoxy}ethoxy)acetyl] [Aib8, Arg34]GLP-1-(7-37) [Semaglutide]
- Improvement of hepatocyte ballooning at end of trial compared to baseline, proportion of subjects [1]: 61.3%
- Improvement of lobular inflammation at end of trial compared to baseline, proportion of subjects [1]: 41.3%
- Improvement of steatosis at end of trial compared to baseline, proportion of subjects [1]: 52.5%
- Resolution of NASH and no worsening in liver fibrosis at end of trial, proportion of subjects [1]: 43.8 (0.0023) %
- Resolution of NASH at end of trial, proportion of subjects [1]: 47.5%
- Improvement of hepatocyte ballooning at end of trial compared to baseline, proportion of subjects [2]: 60.9%
- Improvement of lobular inflammation at end of trial compared to baseline, proportion of subjects [2]: 34.8%
- Improvement of steatosis at end of trial compared to baseline, proportion of subjects [2]: 56.5%
- Resolution of NASH and no worsening in liver fibrosis at end of trial, proportion of subjects [2]: 52.2%
- Resolution of NASH at end of trial, proportion of subjects [2]: 60.9%
- Improvement of hepatocyte ballooning at end of trial compared to baseline, proportion of subjects [3]: 66.7%
- Improvement of lobular inflammation at end of trial compared to baseline, proportion of subjects [3]: 33.3%
- Improvement of steatosis at end of trial compared to baseline, proportion of subjects [3]: 61.1%
- Resolution of NASH and no worsening in liver fibrosis at end of trial, proportion of subjects [3]: 55.6%
- Resolution of NASH at end of trial, proportion of subjects [3]: 55.6%
- Improvement of hepatocyte ballooning at end of trial compared to baseline, proportion of subjects [4]: 61.4%
- Improvement of lobular inflammation at end of trial compared to baseline, proportion of subjects [4]: 43.9%
- Improvement of steatosis at end of trial compared to baseline, proportion of subjects [4]: 50.9%
- Resolution of NASH and no worsening in liver fibrosis at end of trial, proportion of subjects [4]: 40.4 (0.0100) %
- Resolution of NASH at end of trial, proportion of subjects [4]: 42.1%
- Improvement of hepatocyte ballooning at end of trial compared to baseline, proportion of subjects [5]: 59.0%
- Improvement of lobular inflammation at end of trial compared to baseline, proportion of subjects [5]: 48.7%
- Improvement of steatosis at end of trial compared to baseline, proportion of subjects [5]: 46.2%
- Resolution of NASH and no worsening in liver fibrosis at end of trial, proportion of subjects [5]: 33.3%
- Resolution of NASH at end of trial, proportion of subjects [5]: 35.9%
- Worsening of liver fibrosis stage determined via liver biopsy at end of trial compared to baseline, Proportion of subjects (0.1 mg OD s.c., week 72): 10.0%
- Improvement of hepatocyte ballooning at end of trial compared to baseline, proportion of subjects [6]: 70.5%
- Improvement of lobular inflammation at end of trial compared to baseline, proportion of subjects [6]: 47.4%
- Improvement of steatosis at end of trial compared to baseline, proportion of subjects [6]: 60.3%
- Resolution of NASH and no worsening in liver fibrosis at end of trial, proportion of subjects [6]: 38.5 (0.0138) %
- Resolution of NASH at end of trial, proportion of subjects [6]: 46.2%
- Improvement of hepatocyte ballooning at end of trial compared to baseline, proportion of subjects [7]: 84.2%
- Improvement of lobular inflammation at end of trial compared to baseline, proportion of subjects [7]: 42.1%
- Improvement of steatosis at end of trial compared to baseline, proportion of subjects [7]: 63.2%
- Resolution of NASH and no worsening in liver fibrosis at end of trial, proportion of subjects [7]: 47.4%
- Resolution of NASH at end of trial, proportion of subjects [7]: 68.4%
- Improvement of hepatocyte ballooning at end of trial compared to baseline, proportion of subjects [8]: 72.2%
- Improvement of lobular inflammation at end of trial compared to baseline, proportion of subjects [8]: 38.9%
- Improvement of steatosis at end of trial compared to baseline, proportion of subjects [8]: 66.7%
- Resolution of NASH and no worsening in liver fibrosis at end of trial, proportion of subjects [8]: 55.6%
- Resolution of NASH at end of trial, proportion of subjects [8]: 61.1%
- Improvement of hepatocyte ballooning at end of trial compared to baseline, proportion of subjects [9]: 66.1%
- Improvement of lobular inflammation at end of trial compared to baseline, proportion of subjects [9]: 49.2%
- Improvement of steatosis at end of trial compared to baseline, proportion of subjects [9]: 59.3%
- Resolution of NASH and no worsening in liver fibrosis at end of trial, proportion of subjects [9]: 35.6 (0.0359) %
- Resolution of NASH at end of trial, proportion of subjects [9]: 39.0%
- Improvement of hepatocyte ballooning at end of trial compared to baseline, proportion of subjects [10]: 63.4%
- Improvement of lobular inflammation at end of trial compared to baseline, proportion of subjects [10]: 53.7%
- Improvement of steatosis at end of trial compared to baseline, proportion of subjects [10]: 56.1%
- Resolution of NASH and no worsening in liver fibrosis at end of trial, proportion of subjects [10]: 26.8%
- Resolution of NASH at end of trial, proportion of subjects [10]: 29.3%
- Worsening of liver fibrosis stage determined via liver biopsy at end of trial compared to baseline, Proportion of subjects (0.2 mg OD s.c., week 72): 7.7%
- Improvement of hepatocyte ballooning at end of trial compared to baseline, proportion of subjects [11]: 74.4%
- Improvement of lobular inflammation at end of trial compared to baseline, proportion of subjects [11]: 37.8%
- Improvement of steatosis at end of trial compared to baseline, proportion of subjects [11]: 63.4%
- Resolution of NASH and no worsening in liver fibrosis at end of trial, proportion of subjects [11]: 56.1 (<0.0001) %
- Resolution of NASH at end of trial, proportion of subjects [11]: 61.0%
- Improvement of hepatocyte ballooning at end of trial compared to baseline, proportion of subjects [12]: 57.7%
- Improvement of lobular inflammation at end of trial compared to baseline, proportion of subjects [12]: 15.4%
- Improvement of steatosis at end of trial compared to baseline, proportion of subjects [12]: 53.8%
- Resolution of NASH and no worsening in liver fibrosis at end of trial, proportion of subjects [12]: 50.0%
- Resolution of NASH at end of trial, proportion of subjects [12]: 53.8%
- Improvement of hepatocyte ballooning at end of trial compared to baseline, proportion of subjects [13]: 78.6%
- Improvement of lobular inflammation at end of trial compared to baseline, proportion of subjects [13]: 50.0%
- Improvement of steatosis at end of trial compared to baseline, proportion of subjects [13]: 71.4%
- Resolution of NASH and no worsening in liver fibrosis at end of trial, proportion of subjects [13]: 64.3%
- Resolution of NASH at end of trial, proportion of subjects [13]: 78.6%
- Improvement of hepatocyte ballooning at end of trial compared to baseline, proportion of subjects [14]: 82.1%
- Improvement of lobular inflammation at end of trial compared to baseline, proportion of subjects [14]: 48.2%
- Improvement of steatosis at end of trial compared to baseline, proportion of subjects [14]: 67.9%
- Resolution of NASH and no worsening in liver fibrosis at end of trial, proportion of subjects [14]: 58.9 (<0.0001) %
- Resolution of NASH at end of trial, proportion of subjects [14]: 64.3%
- Improvement of hepatocyte ballooning at end of trial compared to baseline, proportion of subjects [15]: 83.3%
- Improvement of lobular inflammation at end of trial compared to baseline, proportion of subjects [15]: 47.6%
- Improvement of steatosis at end of trial compared to baseline, proportion of subjects [15]: 66.7%
- Resolution of NASH and no worsening in liver fibrosis at end of trial, proportion of subjects [15]: 75.1%
- Resolution of NASH at end of trial, proportion of subjects [15]: 59.5%
- Worsening of liver fibrosis stage determined via liver biopsy at end of trial compared to baseline, Proportion of subjects (0.4 mg OD s.c., week 72): 4.9%
- Worsening of liver fibrosis stage compared to placebo (in words) (all semaglutide dosages tested, week 72): lower proportion of subjects
- Resolution of NASH and no worsening in liver fibrosis compared to placebo (in words) [16]: achieved by significantly more subjects compared to placebo
- Resolution of NASH compared to placebo (in words) [16]: achieved by significantly more subjects compared to placebo
